Measurements published in ChEMBL document CHEMBL1129946, “New esters of 4-amino-5-chloro-2-methoxybenzoic acid as potent agonists and antagonists for 5-HT4 receptors” (J Med Chem, 1997).

Columns and labels:
[1] = target: 5-hydroxytryptamine receptor 4 (Rattus norvegicus, UniProt Q62758); experiment: Binding affinity towards 5-hydroxytryptamine 4 receptor was determined in rat striatal membranes using [3H]GR-113808 as radioligand; type: cell membranes, Striatum, Membrane
[2] = target: 5-hydroxytryptamine receptor 4 (Cavia porcellus) (UniProt O70528); experiment: 5-hydroxytryptamine 4 receptor agonist activity is expressed as percent of the maximum 5-HT response; type: functional
5-hydroxytryptamine receptor 4 (Cavia porcellus), sequence (O70528 whole entry): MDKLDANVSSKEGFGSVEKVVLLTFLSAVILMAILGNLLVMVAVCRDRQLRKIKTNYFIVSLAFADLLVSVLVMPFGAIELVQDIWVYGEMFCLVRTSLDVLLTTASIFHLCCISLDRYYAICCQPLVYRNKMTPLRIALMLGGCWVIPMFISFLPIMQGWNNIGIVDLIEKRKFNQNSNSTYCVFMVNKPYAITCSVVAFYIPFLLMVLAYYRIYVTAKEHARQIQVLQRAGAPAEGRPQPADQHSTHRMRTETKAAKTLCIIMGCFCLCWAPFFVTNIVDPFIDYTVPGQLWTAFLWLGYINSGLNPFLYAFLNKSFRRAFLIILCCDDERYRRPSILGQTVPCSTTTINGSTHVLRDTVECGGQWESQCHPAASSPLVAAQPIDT

[3] = target: T1, 5-hydroxytryptamine receptor 4 (Cavia porcellus, UniProt O70528); experiment: 5-hydroxytryptamine 4 receptor agonist activity, concentration which gave 50% increase in the response to electrically-stimulated myenteric plexus and longitudinal muscle of the guinea pig ileum; type: functional, tissue-based
T1 sequence (O70528 whole entry): as above

[4] = target: T1, 5-hydroxytryptamine receptor 4; experiment: 5-hydroxytryptamine 4 receptor antagonist activity, concentration which gave 50% reduction of the 5-HT-induced contractions in the guinea pig ileum; type: functional, tissue-based
[5] = target: T1, 5-hydroxytryptamine receptor 4
[6] = target: T1, 5-hydroxytryptamine receptor 4; experiment: 5-hydroxytryptamine 4 receptor antagonist activity, concentration which gave 50% reduction of the 5-HT-induced contractions in the guinea pig ileum; Inactive up to 10E-5 M; type: functional, tissue-based
[7] = target: T2, Serotonin 3 (5-HT3) receptor (Rattus norvegicus, UniProt P35563+Q9JJ16); experiment: Binding affinity was measured on 5-hydroxytryptamine 3 receptor using [3H]-BRL 43694 as radioligand in rat posterior cortex
T2 sequence (P35563 whole entry): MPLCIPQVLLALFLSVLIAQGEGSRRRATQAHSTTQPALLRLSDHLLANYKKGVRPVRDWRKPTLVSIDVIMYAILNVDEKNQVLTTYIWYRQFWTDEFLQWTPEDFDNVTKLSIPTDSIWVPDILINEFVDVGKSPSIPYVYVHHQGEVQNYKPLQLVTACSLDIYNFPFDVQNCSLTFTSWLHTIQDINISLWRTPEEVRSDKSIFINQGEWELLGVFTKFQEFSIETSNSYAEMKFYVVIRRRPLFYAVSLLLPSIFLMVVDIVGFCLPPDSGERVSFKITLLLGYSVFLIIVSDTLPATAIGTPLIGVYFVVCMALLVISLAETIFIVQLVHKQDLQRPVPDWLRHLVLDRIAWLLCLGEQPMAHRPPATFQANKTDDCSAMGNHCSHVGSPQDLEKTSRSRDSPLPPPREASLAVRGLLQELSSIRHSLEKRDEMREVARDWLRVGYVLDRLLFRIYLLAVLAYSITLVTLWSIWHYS
T2 sequence (Q9JJ16 whole entry): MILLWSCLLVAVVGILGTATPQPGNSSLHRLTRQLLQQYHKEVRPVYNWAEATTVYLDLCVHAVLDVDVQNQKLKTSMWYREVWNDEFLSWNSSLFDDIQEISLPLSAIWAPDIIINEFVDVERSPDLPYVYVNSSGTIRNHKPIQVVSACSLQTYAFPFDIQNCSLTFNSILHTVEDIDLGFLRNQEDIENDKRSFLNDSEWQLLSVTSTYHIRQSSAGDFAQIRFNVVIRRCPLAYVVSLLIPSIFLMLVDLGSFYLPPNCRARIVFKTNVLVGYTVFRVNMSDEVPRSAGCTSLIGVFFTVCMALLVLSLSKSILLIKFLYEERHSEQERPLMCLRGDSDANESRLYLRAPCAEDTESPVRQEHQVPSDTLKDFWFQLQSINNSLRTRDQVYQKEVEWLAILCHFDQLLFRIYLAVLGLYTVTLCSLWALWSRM

[8] = target: T2, Serotonin 3 (5-HT3) receptor; experiment: Binding affinity was measured on 5-hydroxytryptamine 3 receptor using [3H]-BRL 43694 as radioligand in rat posterior cortex.

5-hydroxytryptamine receptor 4 (Rattus norvegicus, UniProt Q62758), sequence (Q62758 whole entry): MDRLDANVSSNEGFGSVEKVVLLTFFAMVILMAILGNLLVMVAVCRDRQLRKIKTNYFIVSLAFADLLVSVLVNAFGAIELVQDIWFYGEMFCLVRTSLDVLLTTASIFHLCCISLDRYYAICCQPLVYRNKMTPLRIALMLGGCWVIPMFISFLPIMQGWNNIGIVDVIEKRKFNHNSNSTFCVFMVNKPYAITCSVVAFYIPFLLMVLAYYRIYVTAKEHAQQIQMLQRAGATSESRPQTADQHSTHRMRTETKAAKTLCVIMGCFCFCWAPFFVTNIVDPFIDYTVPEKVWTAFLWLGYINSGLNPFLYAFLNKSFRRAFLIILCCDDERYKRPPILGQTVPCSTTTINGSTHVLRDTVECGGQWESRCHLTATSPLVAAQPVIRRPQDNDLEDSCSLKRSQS

Row | SMILES | Ki [1] | Activity [2] | EC50 [3] | also measured
1 | COc1cc(N)c(Cl)cc1C(=O)NC1CC2CCC(C1)N2C (centres undefined) | 48.6 nM |  |  | 
2 | COc1cc(N)c(Cl)cc1C(=O)OCCN1CCCC(O)C1 (stereo in doubt; 7k) [listing 1 of 2 here] |  | 62% |  | 
3 | COc1cc(N)c(Cl)cc1C(=O)OCCN1CCCC1 | 5.35 nM | 50% | 40 nM | IC50 [4]: 200 nM
4 | COc1cc(N)c(Cl)cc1C(=O)OCCN(C)C | 47 nM | 60% | 180 nM | IC50 [4]: 600 nM
5 | COc1cc(N)c(Cl)cc1C(=O)OCCN1CC(C)OC(C)C1 (centres undefined) | 6.28 nM |  |  | IC50 [4]: 300 nM; IC50 [5]: Not Active
6 | COc1cc(N)c(Cl)cc1C(=O)N[C@@H]1CN2CCC1CC2 |  | 100% | 77 nM | 
7 | COc1cc(N)c(Cl)cc1C(=O)OCCCN1CCCCC1 | 28.1 nM | 52% | 30 nM | 
8 | COc1cc(N)c(Cl)cc1C(=O)NCCN1CCCCC1 | 135 nM |  | > 1000 nM | IC50 [4]: > 1000 nM
9 | COc1cc(N)c(Cl)cc1C(=O)N(C)CCN1CCCCC1 | > 1000 nM |  | > 1000 nM | IC50 [4]: > 1000 nM
10 | COc1cc(N)c(Cl)cc1C(=O)NCCN(C)C | > 1000 nM |  |  | 
11 | COc1cc(N)c(Cl)cc1C(=O)OCCN1CCOCC1 | 35.6 nM |  | 113 nM | IC50 [6]: Not Active
12 | COc1cc(N)c(Cl)cc1C(=O)OC1CC2CCC(C1)N2C (centres undefined) |  | 41% |  | 
13 | COc1cc(N)c(Cl)cc1C(=O)OCCN1C(C)CCCC1C (centres undefined) | 39.5 nM |  |  | 
14 | COc1cc(N)c(Cl)cc1C(=O)OCCN1CCCC(O)C1 (stereo in doubt; 7l) [listing 1 of 2 here] |  | 61% |  | 
15 | COc1cc(N)c(Cl)cc1C(=O)OCCN1CCCC(O)C1 (stereo in doubt; 7j) [listing 1 of 2 here] | 4.8 nM |  | 5 nM | Ki [7]: > 1000 nM
16 | CCN(CC)CCOC(=O)c1cc(Cl)c(N)cc1OC | 5.5 nM |  |  | 
17 | COc1cc(N)c(Cl)cc1C(=O)OCCN1CCC(C)CC1 | 4.08 nM | 57% | 3 nM | 
18 | NCCc1c[nH]c2ccc(O)cc12 [SEROTONIN] |  |  |  | IC50 [5]: Not Active
19 | COc1cc(N)c(Cl)cc1C(=O)OCC[n+]1ccccc1 | 6.2 nM |  | 17 nM | 
20 | COc1cc(N)c(Cl)cc1C(=O)OCCN1CCCC(O)C1 (stereo in doubt; 7k) [listing 2 of 2 here] | 1 nM |  | 4 nM | 
21 | COc1cc(N)c(Cl)cc1C(=O)OCC[N+]12CCC(CC1)CC2 | 6.03 nM | 78% | 5.3 nM | IC50 [4]: ~20 nM

Row | SMILES | Ki [1] | Activity [2] | EC50 [3] | also measured
22 | COc1cc(N)c(Cl)cc1C(=O)OCCN1CCN(c2ccccc2)CC1 |  |  |  | IC50 [4]: 100 nM
23 | COc1cc(N)c(Cl)cc1C(=O)OCCN1CC(C)CC(C)C1 (stereo in doubt; 7g) | 0.26 nM |  |  | IC50 [4]: 11 nM; Ki [8]: > 1000 nM
24 | COc1cc(N)c(Cl)cc1C(=O)OCCN1CCC(O)CC1 | 1.42 nM | 72% | 14 nM | 
25 | COc1cc(N)c(Cl)cc1C(=O)OCCN1CCCC(C)(C)C1 | 1.72 nM |  |  | IC50 [4]: 150 nM
26 | COc1cc(N)c(Cl)cc1C(=O)OCCN1CC(C)CC(C)C1 (stereo in doubt; 7h) | 2.32 nM |  |  | IC50 [4]: 13 nM; Ki [8]: > 1000 nM
27 | COc1cc(N)c(Cl)cc1C(=O)OCCN1CCC(NC(C)=O)CC1 | 1.05 nM | 59% | 13 nM | 
28 | COc1cc(N)c(Cl)cc1C(=O)OCCN1C2CCCC1CC2 | 9.3 nM | 63% | 40 nM | 
29 | COc1cc(N)c(Cl)cc1C(=O)OCCN1CC2CCC(CC2)C1 | 5.45 nM | 61% | 7.8 nM | 
30 | COc1cc(N)c(Cl)cc1C(=O)N[C@H]1CN2CCC1CC2 [(R)ZACOPRIDE] | 1510 nM | 84% | 166 nM | 
31 | COc1cc(N)c(Cl)cc1C(=O)OCCN1CCCC(C)C1 (centres undefined) | 0.93 nM | 54% | 15 nM | Ki [8]: > 1000 nM
32 | COc1cc(N)c(Cl)cc1C(=O)OCCN1CCCCCC1 | 0.92 nM | 59% | 4.4 nM | 
33 | COc1cc(N)c(Cl)cc1C(=O)NCCN1CC(C)CC(C)C1 (centres undefined) | 103 nM | 80% | ~930 nM | 
34 | COc1cc(N)c(Cl)cc1C(=O)OCCN1CCC(C(N)=O)CC1 | 1.43 nM | 65% | 19 nM | 
35 | Cn1cc(C(=O)OCC2CCN(CCNS(C)(=O)=O)CC2)c2ccccc21 | 0.15 nM |  |  | IC50 [4]: 13 nM
36 | COc1cc(N)c(Cl)cc1C(=O)OCCN1CCCCC1C (centres undefined) | 7.8 nM | 82% | 6 nM | 
37 | COc1cc(N)c(Cl)cc1C(=O)OCCN1CCCCC1 |  |  |  | Ki [8]: 730 nM
38 | COc1cc(N)c(Cl)cc1C(=O)OCCN1CC=CCC1 | 9.1 nM | 65% | 29 nM | 
39 | COc1cc(N)c(Cl)cc1C(=O)OCCN1CCCC(O)C1 (stereo in doubt; 7l) [listing 2 of 2 here] | 2 nM |  | 10 nM | 
40 | COc1cc(N)c(Cl)cc1C(=O)OCCN1CCCC(O)C1 (stereo in doubt; 7j) [listing 2 of 2 here] |  | 64% |  | 
41 | CC(C)n1c(=O)n(C(=O)NC2CC3CCC(C2)N3C)c2ccccc21 (centres undefined) | 257 nM |  | 43 nM | IC50 [5]: Not Active
